Measurements reported in US10757937B2, “Sulfonamides that activate ABA receptors” (The Regents of the University of California, priority 2014, dated 2020).
Where two headings read alike, the source gives them in different places.

How the values were obtained:
[1] = system: Arabidopsis seed germination and hypocotyl growth; assay: Arabidopsis seed germination and hypocotyl growth; assay type: in vivo; conditions: for minimal effective concentration: Arabidopsis thaliana; for Germination Inhibition / Hypocotyl Growth Inhibition: Germination Inhibition II, tested at 10 and 50 uM; for Germination Inhibition: lowest of the two concentrations that inhibited; for Hypocotyl Growth Inhibition: lowest concentration that inhibited hypocotyl growth in wells where seeds germinated
Method in brief: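 Wild-type seeds germinated on ½× Murashige and Skoog medium with compound at 10 and 50 uM, or in a later series at 1, 5, 10, 25 and 50 uM. Reported value is the lowest tested concentration that inhibited germination or hypocotyl growth in wells where seeds germinated.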

PYL8 = biological target: T1, PYL8 (Arabidopsis thaliana, UniProt Q9FGM1); assay: receptor-mediated PP2C (HAB1) inhibition in vitro assay; assay type: biochemical; conditions: for remaining activity at 50 µM: 50 uM of the test compound; for remaining activity at 25 µM: compound at 25 μM, control without agonist = 100%
T1 construct: 6X-His; made in house; host or cells: E. coli BL21[DE3]pLysS
T1 sequence (Q9FGM1 1-188): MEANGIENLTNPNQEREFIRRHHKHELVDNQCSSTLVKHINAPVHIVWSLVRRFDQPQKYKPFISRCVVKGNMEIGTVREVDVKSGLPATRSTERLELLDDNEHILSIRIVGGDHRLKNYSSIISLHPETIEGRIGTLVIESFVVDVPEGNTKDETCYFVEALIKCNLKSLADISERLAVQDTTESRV
T1 sequence (Q9CAJ0 23-511 partner): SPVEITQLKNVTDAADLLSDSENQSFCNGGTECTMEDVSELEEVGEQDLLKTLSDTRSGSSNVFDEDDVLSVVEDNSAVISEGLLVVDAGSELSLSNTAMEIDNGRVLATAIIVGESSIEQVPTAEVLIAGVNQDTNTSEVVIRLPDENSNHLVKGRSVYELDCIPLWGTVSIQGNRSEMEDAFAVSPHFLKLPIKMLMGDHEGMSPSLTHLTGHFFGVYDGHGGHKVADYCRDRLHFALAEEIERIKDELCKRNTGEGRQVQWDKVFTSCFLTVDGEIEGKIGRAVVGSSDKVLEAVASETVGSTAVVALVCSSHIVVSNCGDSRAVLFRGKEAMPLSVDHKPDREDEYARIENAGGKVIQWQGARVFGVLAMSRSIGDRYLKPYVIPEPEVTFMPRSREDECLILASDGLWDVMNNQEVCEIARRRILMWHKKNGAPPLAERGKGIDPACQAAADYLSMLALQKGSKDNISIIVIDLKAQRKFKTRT
Method in brief: (§1)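 Fluorogenic readout: 4-methylumbelliferyl-phosphate hydrolysis by 50 nM GST-HAB1 plus 2:1 His-receptor; Tris-OAc pH 7.9, NaCl, 1 mM MnCl2, β-ME. Compounds at 25 μM or 50 uM single dose; IC50 from dose curves for selected compounds.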

PYL4 = biological target: T2, PYL4 (Arabidopsis thaliana, UniProt O80920); assay: as above; assay type: biochemical; conditions: for remaining activity at 50 µM: 50 uM of the test compound; for remaining activity at 25 µM: compound at 25 μM, control without agonist = 100%
T2 construct: 6X-His; made in house; host or cells: E. coli BL21[DE3]pLysS
T2 sequence (O80920 1-207): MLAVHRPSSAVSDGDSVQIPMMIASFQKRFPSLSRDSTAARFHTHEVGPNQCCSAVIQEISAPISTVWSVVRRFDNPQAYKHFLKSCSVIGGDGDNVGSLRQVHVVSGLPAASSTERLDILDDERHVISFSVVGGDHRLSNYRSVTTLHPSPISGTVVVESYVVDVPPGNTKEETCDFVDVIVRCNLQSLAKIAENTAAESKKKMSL
T2 sequence (Q9CAJ0 23-511 partner): T1 sequence (Q9CAJ0 23-511 partner)
Method in brief: as §1

PYL10 = biological target: T3, PYL10 (Arabidopsis thaliana, UniProt Q8H1R0); assay: as above; assay type: biochemical; conditions: for remaining activity at 50 µM: 50 uM of the test compound
T3 construct: 6X-His; made in house; host or cells: E. coli BL21[DE3]pLysS
T3 sequence (Q8H1R0 1-183): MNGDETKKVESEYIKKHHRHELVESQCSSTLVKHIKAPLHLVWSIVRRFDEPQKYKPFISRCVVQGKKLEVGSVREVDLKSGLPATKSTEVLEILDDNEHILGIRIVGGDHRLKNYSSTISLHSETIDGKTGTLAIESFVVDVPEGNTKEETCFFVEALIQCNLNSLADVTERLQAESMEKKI
T3 sequence (Q9CAJ0 23-511 partner): T1 sequence (Q9CAJ0 23-511 partner)
Method in brief: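 His-tagged receptors (MBP fusion for PYL11) at 2:1 ratio to 50 nM GST-HAB1 in 100 mM Tris-OAc pH 7.9, 100 mM NaCl, 1 mM MnCl2; 4-methylumbelliferyl-phosphate fluorogenic substrate. Compounds at 50 uM (ABA 10 uM); IC50 from dose curves for selected compounds.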

[2] = Germination Effects III, tested at 1, 5, 10, 25 and 50 uM, lowest concentration inhibiting hypocotyl growth, — = none, read-out: Growth Inhibition
[3] = Table XII-B, calculated from dose curves, read-out: PP2C Activity (IC50 in uM) PYL8
[4] = Table XII-B, calculated from dose curves, read-out: PP2C Activity (IC50 in uM) PYL4
[5] = Table XII-B, calculated from dose curves, read-out: PP2C Activity (IC50 in uM) PYL10
[6] = Germination Effects III, tested at 1, 5, 10, 25 and 50 uM, lowest inhibiting concentration, — = none, read-out: Germination Inhibition
[7] = Table VIII, tested at 10 or 50 μM, ABA at 1 μM, lowest inhibiting concentration, − = none, read-out: Germination Inhibition
[8] = Table VII, read-out: PP2C Dose Curves PYL8 (IC50)
[9] = Table VII, read-out: PP2C Dose Curves PYL10 (IC50)
[10] = Table VIII, tested at 10 or 50 μM, lowest inhibiting concentration, − = none, read-out: Hypocotyl Growth Inhibition

IC50 (PYL8; [8]) [µM] | remaining activity at 25 µM (PYL8) [%] | remaining activity at 25 µM (PYL4) [%] | IC50 (PYL10; [9]) [µM] | SMILES | minimal effective concentration [1, 2] [µM] | remaining activity at 50 µM (PYL8) [%] | IC50 (PYL8; [3]) [µM] | remaining activity at 50 µM (PYL4) [%] | IC50 (PYL4; [4]) [µM] | remaining activity at 50 µM (PYL10) [%] | IC50 (PYL10; [5]) [µM] | minimal effective concentration [1, 6] [µM] | minimal effective concentration [1, 7] [µM] | Germination Inhibition ([1]; − = none) [µM] | IC50 (PYL4; Table VII, read-out: PP2C Dose Curves PYL4 (IC50)) [µM] | minimal effective concentration [1, 10] [µM] | Hypocotyl Growth Inhibition ([1]; − = none) [µM]
– | – | – | – | CC(C)COC(=O)NS(=O)(=O)Cc1ccc(C#N)cc1 [Compound 65, 2-Methylpropyl N-[(4-cyanophenyl)methanesulfonyl]carbamate] | 50 | 35.8 | 20.4 | 95.5 | > 50 | 39.2 | 19.2 | – | – | – | – | – | –
– | – | – | – | CC1(C)CCC(C(=O)NS(=O)(=O)Cc2ccc(C#N)cc2)(c2ccc(F)cc2)CC1 [Compound 68, N-[(4-Cyanophenyl)methanesulfonyl]-1-(4-fluorophenyl)-4,4-dimethylcyclohexane-1-carboxamide] | 10 | 57.5 | > 50 | 94 | > 50 | 83.3 | > 50 | 25 | – | – | – | – | –
12.6 | 37 | 94 | > 50 | N#Cc1ccc(CS(=O)(=O)NC(=O)C2(c3ccccc3F)CCCC2)cc1 [Compound 25] | – | – | – | – | – | – | – | – | 50 | 50 | – | 10 | 10
52.4 | 65 | 88 | 17.9 | COc1ccccc1C1(C(=O)NS(=O)(=O)Cc2ccc(C#N)cc2)CCC1 [Compound 42] | – | – | – | – | – | – | – | – | 50 | 50 | – | 10 | 10
– | – | – | – | N#Cc1ccc(CS(=O)(=O)NC(=O)C2(c3ccccc3)CCCCC2)cc1 [Compound 69, N-[(4-Cyanophenyl)methanesulfonyl]-1-phenylcyclohexane-1-carboxamide] | 1 | 14.7 | 0.75 | 95 | > 50 | 27.3 | 1.69 | 5 | – | – | – | – | –
– | – | – | – | N#Cc1ccc(CS(=O)(=O)NC(=O)C2(c3ccsc3)CCCCC2)cc1 [Compound 78, N-[(4-Cyanophenyl)methanesulfonyl]-1-(thiophen-3-yl)cyclohexane-1-carboxamide] | 2.5 | 14.3 | 0.073 | 102 | > 50 | 25.6 | 0.25 | 2.5 | – | – | – | – | –
– | – | – | – | N#Cc1ccc(CS(=O)(=O)NC(=O)C2(c3ccsc3)CCCCC2)cc1Br [Compound 106, N-[(4-Cyano-3-bromophenyl)methanesulfonyl]-1-(thiophen-3-yl)cyclohexane-1-carboxamide] | 1 | 13.6 | 0.037 | 89.2 | > 50 | 22.5 | 0.022 | 1 | – | – | – | – | –
– | – | – | – | CC1CCC(C(=O)NS(=O)(=O)Cc2ccc(C#N)cc2)(c2ccc(F)cc2)CC1 (centres unmarked) [Compound 67, N-[(4-Cyanophenyl)methanesulfonyl]-1-(4-fluorophenyl)-4-methylcyclohexane-1-carboxamide] | 10 | 25.8 | 9.6 | 91.9 | > 50 | 48.2 | – | 25 | – | – | – | – | –
– | – | – | – | N#Cc1ccc(CS(=O)(=O)NC(=O)C2(c3cccs3)CCCCC2)cc1 [Compound 75, N-[(4-Cyanophenyl)methanesulfonyl]-1-(thiophen-2-yl)cyclohexane-1-carboxamide] | 5 | 14.9 | 0.134 | 98 | > 50 | 27 | 0.38 | 5 | – | – | – | – | –
4.45 | 32 | 98 | > 50 | CC(C)(C(=O)NS(=O)(=O)Cc1ccc(C#N)cc1)c1ccc(F)cc1 [Compound 13] | 5 | – | – | – | – | – | – | 10 | 10 | 10 | – | 10 | –

SMILES | IC50 (PYL8; [8]) [µM] | remaining activity at 25 µM (PYL8) [%] | remaining activity at 25 µM (PYL4) [%] | IC50 (PYL10; [9]) [µM] | minimal effective concentration [1, 2] [µM] | remaining activity at 50 µM (PYL8) [%] | IC50 (PYL8; [3]) [µM] | remaining activity at 50 µM (PYL4) [%] | IC50 (PYL4; [4]) [µM] | remaining activity at 50 µM (PYL10) [%] | IC50 (PYL10; [5]) [µM] | minimal effective concentration [1, 6] [µM] | minimal effective concentration [1, 7] [µM] | Germination Inhibition ([1]; − = none) [µM] | IC50 (PYL4; Table VII, read-out: PP2C Dose Curves PYL4 (IC50)) [µM] | minimal effective concentration [1, 10] [µM] | Hypocotyl Growth Inhibition ([1]; − = none) [µM]
N#Cc1ccc(CS(=O)(=O)NC(=O)C2(c3ccc(F)cc3)CCCC2)cc1 [Compound 24] | 6.38 | 21 | 92 | 14.8 | – | – | – | – | – | – | – | – | 10 | 10 | > 50 | – | –
